Data set [1] is described as follows: Caco-2 permeability assay. The class given is in vitro ADME. The note with it: human, apical to basolateral, 2 h at 37° C. The text has this: Caco-2 Permeability Assay:
The in vitro permeation of a test compound across a Caco-2 cell monolayer is a well-established assay system to predict the permeability from the gastro-intestinal tract [cf. P. Artursson and J. Karlsson: Correlation between oral drug absorption in humans and apparent drug permeability coefficients in human intestinal epithelial (Caco-2) cells, Biochem. Biophys. 175 (3), 880-885 (1991)]. The permeability of the compounds of the present invention in such Caco-2 cells was determined as described below:
Human caco-2 cells (ACC No. 169, DSMZ, German Collection of Microorganisms and Cell Cultures, Braunschweig, Germany) are seeded on 24-well insert plates and are allowed to grow for 14-16 days. For permeability studies, the test compounds are dissolved in DMSO and diluted to the final test concentration of 2 μM with transport buffer [Hanks' Buffered Salt Solution, Gibco/Invitrogen, further supplemented with glucose (final concentration 19.9 mM) and HEPES (final concentration 9.8 mM)]. For determination of the apical to basolateral permeability (PappA-B), the test compound solution is added to the apical side of the cell monolayer and transport buffer to the basolateral side of the monolayer; for determination of the basolateral to apical permeability (PappB-A), the test compound solution is added to the basolateral side of the cell monolayer and transport buffer to the apical side of the monolayer. Samples are taken from the donor compartment at the beginning of the experiment to confirm mass balance. After an incubation of 2 h at 37° C., samples are taken from both compartments. Samples are analyzed by LC-MS/MS, and the apparent permeability coefficients are calculated. Lucifer Yellow permeability is assayed for each cell monolayer to ensure cell monolayer integrity, and the permeability of Atenolol (low permeability marker) and Sulfasalazine (marker for active excretion) is determined for each batch as quality control.
(Passage across Caco-2 layers is used to estimate intestinal permeability.)

Data set [2] is described as follows: Pharmacokinetics after intravenous administration of test compounds. The data set is classed as in vivo, rat. The note with it: for in vivo PK, rat i.v. CLblood: male Wistar rats, total blood clearance; for in vivo PK, rat i.v. Fmax, calc: Fmax,calc=[1−CLblood/Qh]*100, Qh 4.2 L per h per kg. As to the method: Pharmacokinetics after Intravenous Administration of Test Compounds: Male Wistar rats (Harlan Laboratories) are anesthetized and a catheter is inserted into the jugular vein of the rat. The next day, a defined dose of the test compound is administered as solution by injection into the tail vein. Blood samples are collected through the jugular catheter during the next 24 h (8-11 time points). Blood is centrifuged in heparin-tubes, and each plasma sample is treated with acetonitrile for protein precipitation. After centrifugation, the test compound in the supernatant is quantified using an LC-MS/MS method. The determined plasma concentrations are used for the calculation of pharmacokinetic parameters, such as AUC (area under the plasma concentration vs. time curve), Vss (volume of distribution under steady-state conditions), Cmax (highest test compound concentration observed in plasma following administration), t1/2 (half-life) and CL (total clearance of the test compound from the plasma). For the calculation of the blood clearance, the blood to plasma partitioning is determined by incubation of the test compound in blood of rats. After separation of the plasma by centrifugation, the concentration in the plasma is determined by an LC-MS/MS method. Under the assumption that the test compound is completely absorbed, the theoretically maximum achievable bioavailability Fmax,calc is calculated by the equation Fmax,calc=[1−CLblood/Qh]*100, wherein CLblood is the total blood clearance and Qh is the hepatic blood flow in rat of 4.2 L per h per kg.

Data set [3] is described as follows: Pharmacokinetics after peroral administration of test compounds. Conditions: for in vivo PK, rat p.o. F / in vivo PK, rat p.o. AUCnorm: male Wistar rats; for in vivo PK, rat p.o. F: bioavailability; for in vivo PK, rat p.o. AUCnorm: dose and body weight-normalized AUC; for Fraction absorbed fabs, calc: rat p.o., fabs,calc=[F/Fmax,calc]*100. The class given is in vivo, rat. As to the method:
Pharmacokinetics after Peroral Administration of Test Compounds: Male Wistar rats (Harlan Laboratories) are anesthetized and a catheter is inserted into the jugular vein of the rat. The next day, a defined dose of the test compound is administered perorally. Blood samples are collected through the jugular catheter during the next 24 h (8-11 time points). Blood is centrifuged in heparin-tubes, and each plasma sample is treated with acetonitrile for protein precipitation. After centrifugation, the test compound in the supernatant is quantified using an LC-MS/MS method. The determined plasma concentrations are used for the determination of pharmacokinetic parameters, such as AUC (area under the plasma concentration vs. time curve), Cmax (highest test compound concentration observed in plasma following administration), t1/2 (half-life) and F (bioavailability). The fraction of the dose absorbed (fabs,calc) is calculated by the equation fabs,calc=[F/Fmax,calc]*100, wherein F is the determined bioavailability after peroral administration and Fmax,calc is the theoretically maximum achievable bioavailability considering the determined blood clearance and assuming that the test compound is completely absorbed.

For data set [4], the target named is Recombinant human c-Met protein (Homo sapiens (Human), UniProt P08581). Put plainly: c-Met receptor tyrosine kinase activity assay (NADH read-out). Conditions: ATP 30 μM, c-Met 30 nM. The class given is biochemical. As to the method:
c-Met Receptor Tyrosine Kinase Activity Assay (NADH Read-Out):
Recombinant human c-Met protein (Invitrogen, Carlsbad, Calif., USA) is used. As substrate for the kinase reaction the peptide KKKSPGEYVNIEFG (JPT, Germany) is used. For the assay, 1 μL of a 51-fold concentrated solution of the test compound in DMSO is pipetted into a white 384-well microtiter plate (Greiner Bio-One, Frickenhausen, Germany). 25 μL of a solution of c-Met (final concentration 30 nM) and pyruvate kinase/lactate dehydrogenase (Roche Diagnostics, Mannheim, Germany; final concentration 8 mg/L) in assay buffer [3-(N-morpholino)propanesulfonic acid (MOPS), 50 mM, pH 7; MgCl2, 10 mM; bovine serum albumin (BSA), 0.01%; Triton X 100, 0.01%; DTT, 2 mM] are added, and the mixture is incubated for 5 min at room temperature. Then, the kinase reaction is started by the addition of 25 μL of a solution of adenosine triphosphate (ATP, final concentration 30 μM), substrate (final concentration 100 μM), nicotinamide adenine dinucleo-tide (NADH, final concentration 50 μM) and dithiothreitol (DTT, final concentration 2 mM) in assay buffer, and the resulting mixture is incubated for a reaction time of 100 min at 32° C.
Subsequently, the amount of phosphorylated substrate is evaluated by measurement of the decrease of NADH fluorescence. Therefore, the fluorescence emissions at 465 nm after excitation at 340 nm is measured in a fluorescence reader, e.g. Tecan Ultra (Tecan, Männedorf, Switzerland). The data are normalised (enzyme reaction without inhibitor=0% inhibition; all other assay components but no enzyme=100% inhibition).

[5] abbreviates: Table 3, read-out: Caco-2 permeability PappA-B.
Setting [6] is: Table 4, read-out: Caco-2 permeability PappA-B.

Molecules are shown by their SMILES. Like-named read-outs stand apart in the source and are kept apart here.

What is called IC50 is the concentration needed to halve the response being measured.

Recombinant human c-Met protein, sequence (P08581 25-1390): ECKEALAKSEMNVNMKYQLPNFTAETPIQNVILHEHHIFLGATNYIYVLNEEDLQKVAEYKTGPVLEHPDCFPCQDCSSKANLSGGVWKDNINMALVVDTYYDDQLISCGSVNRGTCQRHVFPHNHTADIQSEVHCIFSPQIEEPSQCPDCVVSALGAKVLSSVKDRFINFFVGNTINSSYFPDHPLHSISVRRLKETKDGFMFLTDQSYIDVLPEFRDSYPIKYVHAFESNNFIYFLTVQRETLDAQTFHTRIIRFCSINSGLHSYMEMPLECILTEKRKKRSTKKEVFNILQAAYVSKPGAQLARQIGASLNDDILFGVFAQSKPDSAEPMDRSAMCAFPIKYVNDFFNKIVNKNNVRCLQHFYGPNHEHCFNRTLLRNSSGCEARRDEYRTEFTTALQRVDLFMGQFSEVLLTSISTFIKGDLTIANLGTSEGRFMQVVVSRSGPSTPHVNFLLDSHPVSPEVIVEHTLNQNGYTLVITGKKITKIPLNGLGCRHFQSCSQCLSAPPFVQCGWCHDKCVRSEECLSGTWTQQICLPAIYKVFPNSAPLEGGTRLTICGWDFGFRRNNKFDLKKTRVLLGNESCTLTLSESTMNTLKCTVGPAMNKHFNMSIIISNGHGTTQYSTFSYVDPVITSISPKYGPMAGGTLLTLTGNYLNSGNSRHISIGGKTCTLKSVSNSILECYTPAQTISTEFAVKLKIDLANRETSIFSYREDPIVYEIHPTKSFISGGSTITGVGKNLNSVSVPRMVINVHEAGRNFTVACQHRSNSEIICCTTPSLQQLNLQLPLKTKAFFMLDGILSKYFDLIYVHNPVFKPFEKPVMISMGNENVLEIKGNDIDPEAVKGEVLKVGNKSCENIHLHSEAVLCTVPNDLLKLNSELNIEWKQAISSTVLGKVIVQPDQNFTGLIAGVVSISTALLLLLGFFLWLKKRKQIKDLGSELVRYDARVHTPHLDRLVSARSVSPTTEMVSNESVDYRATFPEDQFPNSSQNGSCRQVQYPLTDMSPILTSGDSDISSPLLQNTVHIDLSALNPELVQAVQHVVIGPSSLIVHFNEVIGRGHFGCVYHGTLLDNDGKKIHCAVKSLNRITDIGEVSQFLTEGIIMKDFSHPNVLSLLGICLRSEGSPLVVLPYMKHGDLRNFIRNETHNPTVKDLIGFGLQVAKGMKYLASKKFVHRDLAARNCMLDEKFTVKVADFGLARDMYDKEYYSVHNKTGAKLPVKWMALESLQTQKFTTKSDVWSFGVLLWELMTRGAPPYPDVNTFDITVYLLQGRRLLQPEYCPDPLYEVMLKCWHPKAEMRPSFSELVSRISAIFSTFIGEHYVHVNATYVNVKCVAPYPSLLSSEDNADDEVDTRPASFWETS

Consider `CC1=C(C#N)C(c2cc3c(C)n[nH]c3cc2F)C(C#N)=C(C(F)F)N1` (racemic) [Example 7, rac-2-(Difluoromethyl)-4-(6-fluoro-3-methyl-1H-indazol-5-yl)-6-methyl-1,4-dihydropyridine-3,5-dicarbonitrile], for which the Papp at 2 h, 2 μM in data set [1] (setting [5]) came to 22 ×10⁻⁶ cm/s. In data set [2], the “in vivo PK, rat i.v. CLblood” value turned out to be 26.7 mL/min/kg and the “in vivo PK, rat i.v. Fmax, calc” value is recorded as 62%. Also, in data set [3], the “in vivo PK, rat p.o. F” value is reported as 68%; the “in vivo PK, rat p.o. AUCnorm” value amounted to 0.69 kg·h/L; the “Fraction absorbed fabs, calc” value is 109%.
Regarding `CC1=C(C#N)C(c2cc3cn[nH]c3cc2F)C(C#N)=C(C(F)F)N1` (racemic) [Example 16, rac-2-(Difluoromethyl)-4-(6-fluoro-1H-indazol-5-yl)-6-methyl-1,4-dihydropyridine-3,5-dicarbonitrile], the Papp at 2 h, 2 μM in data set [1] (setting [6]) worked out at 22.6 ×10⁻⁶ cm/s.
On to `CC1=C(C#N)C(c2cc3cn[nH]c3cc2F)C(C#N)=C(C(F)(F)F)N1` (racemic) [Example 19, rac-4-(6-Fluoro-1H-indazol-5-yl)-2-methyl-6-(trifluoromethyl)-1,4-dihydropyridine-3,5-dicarbonitrile], for which, in data set [1] (setting [5]), the Papp at 2 h, 2 μM was determined as 17.6 ×10⁻⁶ cm/s. In data set [2], the “in vivo PK, rat i.v. CLblood” value came out at 36.5 mL/min/kg and the “in vivo PK, rat i.v. Fmax, calc” value was 48%. In data set [3], the “in vivo PK, rat p.o. F” value is listed as 40%; the “in vivo PK, rat p.o. AUCnorm” value worked out at 0.33 kg·h/L; the “Fraction absorbed fabs, calc” value is 84%.
In the case of `CC1=C(C#N)C(c2ccc3[nH]ncc3c2)C(C#N)=C(C(F)(F)F)N1` (racemic) [Example 20, rac-4-(1H-Indazol-5-yl)-2-methyl-6-(trifluoromethyl)-1,4-dihydropyridine-3,5-dicarbonitrile], the IC50 in data set [4] came out at 27 nM. Moreover, in data set [1] (setting [6]), the Papp at 2 h, 2 μM was 20 ×10⁻⁶ cm/s.
Regarding `CC1=C(C#N)C(c2ccc3[nH]nc(C)c3c2)C(C#N)=C(C(F)(F)F)N1C` (racemic) [Example 42, rac-1,2-Dimethyl-4-(3-methyl-1H-indazol-5-yl)-6-(trifluoromethyl)-1,4-dihydropyridine-3,5-dicarbonitrile], in data set [1] (setting [6]), the Papp at 2 h, 2 μM is 38.8 ×10⁻⁶ cm/s.
`CC1=C(C#N)C(c2ccc3[nH]nc(C)c3c2)C(C#N)=C(C(F)(F)F)N1` (single isomer, unassigned) [Example 5]: the IC50 in data set [4] is 12 nM.
As to `CC1=C(C#N)C(c2cc3c(C)n[nH]c3cc2F)C(C#N)=C(C(F)F)N1` (single isomer, unassigned) [Example 8, 2-(Difluoromethyl)-4-(6-fluoro-3-methyl-1H-indazol-5-yl)-6-methyl-1,4-dihydropyridine-3,5-dicarbonitrile], the IC50 in data set [4] stood at 9 nM.
Consider `CC1=C(C#N)C(c2cc3c(C)n[nH]c3cc2F)C(C#N)=C(C(F)(F)F)N1` (single isomer, unassigned) [Example 12, 4-(6-Fluoro-3-methyl-1H-indazol-5-yl)-2-methyl-6-(trifluoromethyl)-1,4-dihydropyridine-3,5-dicarbonitrile], for which the Papp at 2 h, 2 μM in data set [1] (setting [5]) came out at 18.7 ×10⁻⁶ cm/s. In addition, in data set [2], the “in vivo PK, rat i.v. CLblood” value was determined as 13.2 mL/min/kg and the “in vivo PK, rat i.v. Fmax, calc” value is 81%. Moreover, in data set [3], the “in vivo PK, rat p.o. F” value turned out to be 48%; the “in vivo PK, rat p.o. AUCnorm” value worked out at 1.1 kg·h/L; the “Fraction absorbed fabs, calc” value was 59%.
In the case of `CC1=C(C#N)C(c2cc3cn[nH]c3cc2F)C(C#N)=C(C(F)F)N1` (single isomer, unassigned) [Example 17, 2-(Difluoromethyl)-4-(6-fluoro-1H-indazol-5-yl)-6-methyl-1,4-dihydropyridine-3,5-dicarbonitrile], the half-maximal inhibitory concentration (IC50) in data set [4] is 11 nM.
Take `CC1=C(C#N)C(c2ccc3[nH]nc(C)c3c2)C(C#N)=C(C(F)(F)F)N1C` (single isomer, unassigned) [Example 43, 1,2-Dimethyl-4-(3-methyl-1H-indazol-5-yl)-6-(trifluoromethyl)-1,4-dihydropyridine-3,5-dicarbonitrile]: the IC50 in data set [4] was 9 nM.
For `CC1=C(C#N)C(c2ccc3[nH]nc(C)c3c2)C(C#N)=C(C(F)(F)F)N1C` (single isomer, unassigned) [Example 44, 1,2-Dimethyl-4-(3-methyl-1H-indazol-5-yl)-6-(trifluoromethyl)-1,4-dihydropyridine-3,5-dicarbonitrile], the IC50 in data set [4] was determined as 8 nM.
For `Cc1n[nH]c2ccc(C3C(C#N)=C(C(F)F)NC(C(F)F)=C3C#N)cc12` [Example 13, 2,6-Bis(difluoromethyl)-4-(3-methyl-1H-indazol-5-yl)-1,4-dihydropyridine-3,5-dicarbonitrile], the Papp at 2 h, 2 μM in data set [1] (setting [5]) is 39.3 ×10⁻⁶ cm/s. In data set [2], the “in vivo PK, rat i.v. CLblood” value was determined as 2.83 mL/min/kg and the “in vivo PK, rat i.v. Fmax, calc” value is listed as 96%. For the same compound, in data set [3], the “in vivo PK, rat p.o. F” value is 70%; the “in vivo PK, rat p.o. AUCnorm” value amounted to 6.16 kg·h/L; the “Fraction absorbed fabs, calc” value is 73%.
Turning to `N#CC1=C(C(F)F)NC(C(F)F)=C(C#N)C1c1cc2cn[nH]c2cc1F` [Example 15, 2,6-Bis(difluoromethyl)-4-(6-fluoro-1H-indazol-5-yl)-1,4-dihydropyridine-3,5-dicarbonitrile], in data set [1] (setting [5]), the Papp at 2 h, 2 μM was determined as 16.9 ×10⁻⁶ cm/s. Moreover, in data set [2], the “in vivo PK, rat i.v. CLblood” value was 3.83 mL/min/kg and the “in vivo PK, rat i.v. Fmax, calc” value is 95%. Moreover, in data set [3], the “in vivo PK, rat p.o. F” value was found to be 63%; the “in vivo PK, rat p.o. AUCnorm” value amounted to 3.87 kg·h/L; the “Fraction absorbed fabs, calc” value is 66%.
Turning to `CCc1n[nH]c2ccc(C3C(C#N)=C(C(F)F)NC(C(F)F)=C3C#N)cc12` [Example 25, 2,6-Bis(difluoromethyl)-4-(3-ethyl-1H-indazol-5-yl)-1,4-dihydropyridine-3,5-dicarbonitrile], the Papp at 2 h, 2 μM in data set [1] (setting [6]) stood at 29 ×10⁻⁶ cm/s.
`Cc1n[nH]c2ccc(C3C(C#N)=C(C(F)(F)F)NC(C(F)(F)F)=C3C#N)cc12` [Example 26, 4-(3-Methyl-1H-indazol-5-yl)-2,6-bis(trifluoromethyl)-1,4-dihydropyridine-3,5-dicarbonitrile]: the Papp at 2 h, 2 μM in data set [1] (setting [6]) worked out at 34.8 ×10⁻⁶ cm/s.

Source of the values: US9422263B2, “Fluoro-substituted 3,5-dicyano-4-(1H-indazol-5-yl)-2,6-dimethyl-1,4-dihydropyridine derivatives and methods of use thereof” (BAYER PHARMA AKTIENGESELLSCHAFT, priority 2009, dated 2016).
